Columns and labels:
Experiment in all cases: GC-MS product analysis
Format in all cases: biochemical
Conditions in all cases: 10 mM MgCl2, 1 mM MnCl2, pH 7.5, 30°C, 2 h
PhEDS = molecular target: T1, PhEDS (Pelargonium graveolens, UniProt A0A2S1JKY7)
T1 construct: gene EUS; full-length; E. coli Rosetta (DE3) pLysS
T1 sequence (A0A2S1JKY7 1-567): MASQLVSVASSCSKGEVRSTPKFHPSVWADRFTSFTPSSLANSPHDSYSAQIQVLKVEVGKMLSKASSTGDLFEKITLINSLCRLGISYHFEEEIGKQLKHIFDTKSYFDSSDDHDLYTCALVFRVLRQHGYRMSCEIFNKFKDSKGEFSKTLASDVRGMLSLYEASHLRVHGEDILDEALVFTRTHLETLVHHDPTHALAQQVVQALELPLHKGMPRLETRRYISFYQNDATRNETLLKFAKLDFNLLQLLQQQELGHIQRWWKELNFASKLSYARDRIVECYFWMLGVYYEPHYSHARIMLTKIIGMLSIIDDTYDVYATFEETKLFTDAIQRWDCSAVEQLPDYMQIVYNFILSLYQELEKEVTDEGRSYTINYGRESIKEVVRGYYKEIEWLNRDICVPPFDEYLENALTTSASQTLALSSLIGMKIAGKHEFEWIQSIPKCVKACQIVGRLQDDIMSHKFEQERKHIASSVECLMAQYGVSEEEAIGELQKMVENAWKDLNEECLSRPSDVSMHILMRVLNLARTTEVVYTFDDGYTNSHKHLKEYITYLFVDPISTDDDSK

PhGES = molecular target: T2, PhGES (Pelargonium graveolens, UniProt A0A2S1JKY6)
T2 construct: gene GES; full-length (plastid-targeted); E. coli Rosetta (DE3) pLysS; 'Grasse' form lacks the TAL triplet of 'Bourbon' and 'Egypt'
T2 sequence (A0A2S1JKY6 1-555): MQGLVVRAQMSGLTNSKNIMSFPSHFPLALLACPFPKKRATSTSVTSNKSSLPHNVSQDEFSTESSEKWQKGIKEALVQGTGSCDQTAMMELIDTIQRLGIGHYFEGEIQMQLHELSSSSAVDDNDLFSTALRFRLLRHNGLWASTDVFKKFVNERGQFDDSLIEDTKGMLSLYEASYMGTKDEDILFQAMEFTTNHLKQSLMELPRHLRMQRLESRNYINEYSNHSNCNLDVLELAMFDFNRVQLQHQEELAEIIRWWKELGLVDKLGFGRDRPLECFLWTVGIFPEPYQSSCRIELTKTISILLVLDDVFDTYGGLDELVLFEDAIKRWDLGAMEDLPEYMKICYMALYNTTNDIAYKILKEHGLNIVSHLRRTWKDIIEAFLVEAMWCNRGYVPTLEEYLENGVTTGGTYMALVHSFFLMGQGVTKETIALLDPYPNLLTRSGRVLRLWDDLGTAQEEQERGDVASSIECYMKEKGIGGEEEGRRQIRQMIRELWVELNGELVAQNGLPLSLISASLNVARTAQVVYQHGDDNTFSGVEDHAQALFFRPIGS

PhMYRS = molecular target: T3, PhMYRS (Pelargonium graveolens, UniProt A0A2S1JKZ8)
T3 construct: gene MYRS; full-length (predicted plastid-targeted); E. coli Rosetta (DE3) pLysS
T3 sequence (A0A2S1JKZ8 1-606): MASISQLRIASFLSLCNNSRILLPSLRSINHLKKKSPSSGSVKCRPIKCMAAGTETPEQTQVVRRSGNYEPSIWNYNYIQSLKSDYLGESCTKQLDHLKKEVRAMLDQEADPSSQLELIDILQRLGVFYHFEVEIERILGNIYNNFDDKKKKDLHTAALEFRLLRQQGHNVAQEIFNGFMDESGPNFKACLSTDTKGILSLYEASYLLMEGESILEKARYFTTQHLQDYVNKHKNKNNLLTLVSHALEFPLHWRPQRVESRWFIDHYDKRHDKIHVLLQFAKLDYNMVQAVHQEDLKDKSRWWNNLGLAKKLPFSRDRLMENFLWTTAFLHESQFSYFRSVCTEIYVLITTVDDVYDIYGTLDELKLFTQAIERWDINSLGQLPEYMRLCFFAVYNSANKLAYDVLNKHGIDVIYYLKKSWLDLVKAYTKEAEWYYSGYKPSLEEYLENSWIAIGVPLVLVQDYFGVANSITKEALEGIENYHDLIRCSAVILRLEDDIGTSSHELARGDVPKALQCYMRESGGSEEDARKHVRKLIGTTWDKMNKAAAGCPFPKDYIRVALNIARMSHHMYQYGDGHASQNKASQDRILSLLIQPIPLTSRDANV

With `CC1=C2CC(C(C)(C)O)CCC2(C)CCC1` (stereo not drawn) [10-epi-γ-eudesmol] the GC-MS product analysis (PhEDS; major product from FPP) was “PhEDS (MF503882) produced 10-epi-γ-eudesmol and α-eudesmol as major and minor products”.

In the case of `CC(C)=CCC/C(C)=C/CC/C(C)=C/COP(=O)(O)OP(=O)(O)O` [FPP], the GC-MS product analysis (PhEDS; 50 µM) is reported as “PhEDS (MF503882) produced 10-epi-γ-eudesmol and α-eudesmol as major and minor products, respectively, after incubation with FPP”.

In the case of `CC(C)=CCC/C(C)=C/COP(=O)(O)OP(=O)(O)O` [GPP], the GC-MS product analysis (PhGES; 50 µM) is reported as “PhGES (MF503883) produced uniquely geraniol in presence of GPP as a substrate” and the GC-MS product analysis (PhMYRS; 50 µM) is reported as “PhMYRS (MF503884) used GPP to produce β-myrcene as major compound”.

`CC(C)=CCC/C(C)=C/CO` [geraniol] was tested, and the GC-MS product analysis (PhGES; sole product from GPP) was “PhGES (MF503883) produced uniquely geraniol in presence of GPP as a substrate”.

In the case of `C=CC(=C)CCC=C(C)C` [β-myrcene], the GC-MS product analysis (PhMYRS; major product from GPP) is reported as “PhMYRS (MF503884) used GPP to produce β-myrcene as major compound”.
